Source: US20240150377A1, “MODULATORS OF CYSTIC FIBROSIS TRANSMEMBRANE CONDUCTANCE REGULATOR” (VERTEX PHARMACEUTICALS INCORPORATED, priority 2020, published 2024)

Experiments:
CFTR [1] = target: T1, CFTR (Homo sapiens, UniProt P13569, DEL508-508); test: HBE assay: Ussing chamber assay of CFTR-mediated short-circuit currents; type: cell-based; settings: for activation at 10 µM: read-out: HBE Activity at 10 μM (%); for Emax: read-out: HBE Max activity (%)
T1 construct: endogenous in cells; host or cells: primary human bronchial epithelial cells from CF subjects (F508del/MF-HBE), differentiated at air-liquid interface
T1 sequence (P13569 with tags, fused parts or gaps DEL508-508): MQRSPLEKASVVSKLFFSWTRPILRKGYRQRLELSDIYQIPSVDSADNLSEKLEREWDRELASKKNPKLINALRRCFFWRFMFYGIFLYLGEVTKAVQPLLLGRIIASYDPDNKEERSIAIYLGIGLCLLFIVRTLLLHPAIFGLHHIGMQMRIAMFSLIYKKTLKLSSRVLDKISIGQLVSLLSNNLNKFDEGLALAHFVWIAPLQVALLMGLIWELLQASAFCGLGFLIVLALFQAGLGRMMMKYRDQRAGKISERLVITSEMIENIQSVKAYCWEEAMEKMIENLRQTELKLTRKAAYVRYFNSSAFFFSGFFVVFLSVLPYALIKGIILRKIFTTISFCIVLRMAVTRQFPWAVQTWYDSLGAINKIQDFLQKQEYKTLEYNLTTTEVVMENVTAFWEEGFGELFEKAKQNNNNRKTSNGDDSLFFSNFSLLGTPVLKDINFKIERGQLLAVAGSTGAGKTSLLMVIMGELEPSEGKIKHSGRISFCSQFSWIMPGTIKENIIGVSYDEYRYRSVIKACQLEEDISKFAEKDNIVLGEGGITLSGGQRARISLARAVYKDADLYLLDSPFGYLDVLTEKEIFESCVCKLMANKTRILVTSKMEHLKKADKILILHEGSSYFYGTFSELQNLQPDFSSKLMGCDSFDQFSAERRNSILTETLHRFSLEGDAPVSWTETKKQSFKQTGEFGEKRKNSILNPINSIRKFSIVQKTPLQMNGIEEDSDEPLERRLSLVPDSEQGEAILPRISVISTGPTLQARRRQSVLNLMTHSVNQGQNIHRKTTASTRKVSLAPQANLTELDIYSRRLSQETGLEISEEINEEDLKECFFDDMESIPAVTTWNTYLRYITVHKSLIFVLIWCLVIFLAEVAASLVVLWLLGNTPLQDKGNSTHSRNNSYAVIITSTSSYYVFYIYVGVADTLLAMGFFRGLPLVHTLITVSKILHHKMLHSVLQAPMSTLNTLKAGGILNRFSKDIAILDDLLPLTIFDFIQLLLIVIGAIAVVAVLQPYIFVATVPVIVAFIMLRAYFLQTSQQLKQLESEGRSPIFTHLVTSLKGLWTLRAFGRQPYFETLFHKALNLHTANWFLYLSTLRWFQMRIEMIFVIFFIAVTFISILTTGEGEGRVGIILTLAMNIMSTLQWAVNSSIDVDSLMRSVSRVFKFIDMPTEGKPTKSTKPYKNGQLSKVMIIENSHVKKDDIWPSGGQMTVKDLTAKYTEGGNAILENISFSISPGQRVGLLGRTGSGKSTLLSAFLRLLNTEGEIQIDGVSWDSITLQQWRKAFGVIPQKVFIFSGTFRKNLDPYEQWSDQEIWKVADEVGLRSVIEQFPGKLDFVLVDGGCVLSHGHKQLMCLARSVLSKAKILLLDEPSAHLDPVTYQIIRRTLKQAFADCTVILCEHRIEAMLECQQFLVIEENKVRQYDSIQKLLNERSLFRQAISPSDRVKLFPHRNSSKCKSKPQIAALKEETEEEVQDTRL
Outline: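 CFTR-mediated Isc (μA/cm²) equals the peak response to apical 20 μM forskolin minus the residual after a 20 μM each BPO/GlyH-101/CFTR inhibitor 172 cocktail, recorded in Ussing chambers at Vhold 0 mV, 37 °C, pH 7.4, with 30 μM apical amiloride. Cells were F508del/MF HBE cultures preincubated 18-24 h with corrector (concentration range or 10 μM) plus 1 μM ivacaftor in 20% human serum.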

CFTR [2] = target: T1, CFTR; test: HBE2 assay: Ussing chamber assay of CFTR-mediated short-circuit currents; type: cell-based; settings: F508del/MF-HBE cells, with 44 nM potentiator, 18-24 hours, 20% human serum; for Emax: read-out: HBE2 Max activity (%)
Outline: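 F508del/MF-HBE cultured >14 days at air-liquid interface, mounted in Ussing chambers; transepithelial short-circuit current recorded under voltage clamp (Vhold=0 mV) at 37 °C. CFTR-mediated ISC (μA/cm^2) taken as peak forskolin response relative to steady-state current after inhibition; corrector activity assessed this way.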

Row | activation at 10 µM (CFTR [1]; HBE assay) [%] | HBE2 Activity at 3 μM (%) (CFTR [2]) | SMILES | other results
1 | > 60 | – | Cc1cccc(C)c1-c1cc2nc(n1)NS(=O)(=O)c1cccc(c1)C(=O)N(Cc1cncc(N(C)CC(C)C)n1)[C@H](CC(C)(C)C)CO2 [Compound 1519] | EC50 (CFTR [2]): < 1000 nM; Emax (CFTR [2]): > 60%
2 | > 60 | +++ (+++ is >60+) | CC[C@H](C)Oc1cnc(CN2C(=O)c3cccc(c3)S(=O)(=O)Nc3nc(cc(-c4c(C)cccc4C)n3)OC[C@H]2CCC(C)(C)C)nc1 [Compound 1547] | –
3 | – | +++ (+++ is >60+) | COC[C@@H](C)N(C)c1cncc(CN2C(=O)c3cccc(c3)S(=O)(=O)Nc3nc(cc(-c4c(C)cccc4C)n3)OC[C@H]2CC(C)(C)C)n1 [Compound 1493] | EC50 (CFTR [1]; HBE assay, read-out: HBE EC50): < 1 µM; Emax (CFTR [1]; HBE assay): > 60%
4 | > 60 | +++ (+++ is >60+) | CCC(C)Oc1cnc(CN2C(=O)c3cccc(c3)S(=O)(=O)Nc3nc(cc(-c4c(C)cccc4C)n3)OC[C@H]2CCC(C)C)nc1 (stereo partly drawn) [Compound 1528] | –
5 | > 60 | – | Cc1cccc(C)c1-c1cc2nc(n1)NS(=O)(=O)c1cccc(c1)C(=O)N(Cc1ncc(N(C)C(=O)OC(C)C)cn1)[C@H](CC(C)(C)C)CO2 [Compound 1518] | Emax (CFTR [2]): > 60%
6 | > 60 | – | Cc1cccc(C)c1-c1cc2nc(n1)NS(=O)(=O)c1cccc(c1)C(=O)N(Cc1ccnc(N(C)C3CC4(CC4)C3)n1)[C@H](CC(C)(C)C)CO2 [Compound 1448] | EC50 (CFTR [2]): < 1000 nM; Emax (CFTR [2]): > 60%
7 | > 60 | +++ (+++ is >60+) | Cc1cccc(C)c1-c1cc2nc(n1)NS(=O)(=O)c1cccc(c1)C(=O)N(Cc1cncc(N(C)CC3CC3)n1)[C@H](CC(C)(C)C)CO2 [Compound 1507] | –
8 | > 60 | +++ (+++ is >60+) | COC(=O)N(C)c1cnc(CN2C(=O)c3cccc(c3)S(=O)(=O)Nc3nc(cc(-c4c(C)cccc4C)n3)OC[C@H]2CC(C)(C)C)nc1 [Compound 1517] | –
9 | > 60 | +++ (+++ is >60+) | Cc1cccc(C)c1-c1cc2nc(n1)NS(=O)(=O)c1cccc(c1)C(=O)N(Cc1ncc(N3CC(C)(C)C3)cn1)[C@H](CC1(C(F)(F)F)CC1)CO2 [Compound 1529] | –
10 | > 60 | +++ (+++ is >60+) | Cc1cccc(C)c1-c1cc2nc(n1)NS(=O)(=O)c1cccc(c1)C(=O)N(Cc1ncc(N3CC(C)(C)C3)cn1)[C@H](CC(C)(C)C(F)(F)F)CO2 [Compound 1520] | –
11 | – | +++ (+++ is >60+) | CC[C@@H]1CCCN1c1cncc(CN2C(=O)c3cccc(c3)S(=O)(=O)Nc3nc(cc(-c4c(C)cccc4C)n3)OC[C@H]2CC(C)(C)C)n1 [Compound 1496] | EC50 (CFTR [1]; HBE assay, read-out: HBE EC50): < 1 µM; Emax (CFTR [1]; HBE assay): > 60%
12 | > 60 | +++ (+++ is >60+) | COCC1(CN(C)c2cncc(CN3C(=O)c4cccc(c4)S(=O)(=O)Nc4nc(cc(-c5c(C)cccc5C)n4)OC[C@H]3CC(C)(C)C)n2)CC1 [Compound 1492] | EC50 (CFTR [1]; HBE assay, read-out: HBE EC50): < 1 µM; Emax (CFTR [1]; HBE assay): > 60%

Row | SMILES | activation at 10 µM (CFTR [1]; HBE assay) [%] | HBE2 Activity at 3 μM (%) (CFTR [2]) | other results
13 | Cc1cccc(C)c1-c1cc2nc(n1)NS(=O)(=O)c1cccc(c1)C(=O)N(Cc1cncc(N3CCC[C@H]3C3CC3)n1)[C@H](CC(C)(C)C)CO2 [Compound 1495] | – | +++ (+++ is >60+) | EC50 (CFTR [1]; HBE EC50 (μM), HBE assay): < 1 µM; Emax (CFTR [1]): > 60%
